Tests used:
[1] = tested on: benzodiazepine receptors; assay: In vitro binding, 3H-Diazepam displacement on rat brain membrane preparation; settings: 2 nM 3H-Diazepam, rat cortex membranes; for Displacement of 3H-Diazepam from its receptor: 1 hr at 0-4 °C; for IC50 value: both drugs compared
Method: The in vitro binding of compound A in comparison to that of chlordiazepoxide was measured on rat brain membrane preparation. Male CFY rat cortex was homogenized in 0.32M sucrose using glass homogenizer with teflon pestle. Nucleus was spun down at 1000 g for 15 min. The supernatant was centrifuged at 40,000 g for 15 min. The pellet was homogenized in 5 mM TRIS-citrate buffer pH 7.1 by a Polytron P10 and it was lyzed for 15 min. at 0° C. After centrifugation at 40,000 g for 15 min. the pellet was taken up in 50 mM TRIS-citrate buffer pH 7.1 and kept overnight at -20° C. After thawing and centrifugation (40,000 g for 15 min.) the pellet was washed in 50 mM TRIS-citrate buffer pH 7.1 three times by centrifugation. The final pellet was taken up in the same buffer in 1:30 volume. Ligand: 2 nM ^3 H-Diazepam (sp. act. 86 Ci/mmol).
Incubation: 1 hr at 0°-4° C. in 50 mM TRIS-citrate buffer ph 7.1
Final protein concentration: ca. 0.5 mg/ml.
The binding was stopped by dilution with cold buffer and rapid filtration on GF/B Whatman filter paper.
For the displacement we used six different concentrations of drugs, run with 3 parallels. Experiments were repeated two times. Compound A was dissolved in cc. acetic acid and distilled water then the 10^-3 M solution was further diluted with incubation buffer. Blank solution was prepared in the same way without containing the drug. Chlordiazepoxide was dissolved in the incubation buffer.

[2] = tested on: Male CFY rats; assay: "Conflict" test: water consumption of food-deprived rats without punishment and in punished situation (anti-anxiety versus sedative effect); format: in vivo, rat; settings: for Sedative dose (numerator of ratio): as printed in b54 without unit, see Tables I and III; for Water consumption (ml) punished situation / Water consumption (ml) without punishment: 30 min prior; for Ratio between the sedative and anxiolytic dose: Tables I and III; for Anxiolytic effect in presence of RO-15-1788 (selective benzodiazepine receptor antagonist): Tables II and IV
Method: The essential strategy for measuring the anti-anxiety effecct of a drug is to check its activity in a conflict situation. We elicit a rewarded response, then suppress that response by punishing it when it occurs and the anti-anxiety effect is measured by the drug-induced increase in punished responding, whereas the sedative effect is measured by the drug-induced decrease of unpunished responding.
This means that when we circuit the drinking tube and the grid floor of the cage and the rat is regularly shocked by trying to drink, the very hungry animal, which cannot eat without drinking, is maximally forced to overcome the hindrance. This is a sensitive test to check the anti-anxiety effect of a compound.
Male CFY rats, weighing 230-250 g, fed with standard food pellets and supplied with tap water ad libitum, were kept under controlled standard environmental conditions (room temperature between 22°-24° C.) in groups of ten for two weeks until used in the experiment. The rats kept in single cages during starvation were deprived of food for 96 hours and supplied with tap water ad libitum before the experiment.
Another aspect of the selection of the animals for the experiment was their visible physical fitness and normal activity after starvation.
A clear Plexiglass box (39×27×12 cm) with a stainless-steel grid floor supplied with a tray for the food pellets and with a drinking tube was used for the experiment. The grid floor, the drinking tube and an electric stimulator (Grass S48) were connected and electric shocks in this circuit were delivered for 10 s duration with 20 s intervals. The parameters of the current (100 V; 25 ohm; 7.5 ms; 5 Hz) were empirically selected using those electric shocks which inhibited the water consumption of the very hungry rats to one third of the control (unpunished) level.
The rats spend one hour in the apparatus after 96 hours of food deprivation.
The drugs were administered parenterally in doses of 0.5 ml/100 g body weight. We refrained from the oral administration of the compounds because of the long term food deprivation.
The Student t-test was used for statistical analysis. The anxiolytic effect was established in punished animals and the sedative effect in unpunished rats.

[3] = tested on: strychnine induced convulsions in rats; assay: Strychnine induced lethal convulsions; format: in vivo, rat
[4] = tested on: picrotoxin induced convulsions in rats; format: in vivo, rat
[5] = tested on: pentametazol induced convulsions in rats; assay: Pentametazol induced convulsions; format: in vivo, rat; settings: for Deaths of pretreated animals / Effect on pentametazol convulsions: 10 mg/kg prior to 120 mg/kg s.c. pentametazol
[6] = Acute toxicity, oral LD50; settings: rat, in vivo, CFY rats, deaths within 48 h, Litchfield and Wilcoxon
Method: Acute toxicity was assessed on CFY rats (100-160 g). Groups of 10 rats were used. Compound A was administered orally (in volume of 10 ml/kg). The animals starved for 16 h before the experiment. Each dose was administered to a group of animals equally subdivided into males and females. Deaths occurring within 48 h were considered. LD50 values were calculated on the basis of the graphical method of Litchfield and Wilcoxon.

[7] = tested on: electroshock-induced convulsions in rats; assay: Electroshock-induced lethal convulsions; format: in vivo, rat
[8] = chlordiazepoxide 0.05 mg/kg s.c.
[9] = chlordiazepoxide 0.1 mg/kg s.c.
[10] = chlordiazepoxide 0.25 mg/kg s.c.
[11] = chlordiazepoxide 0.5 mg/kg s.c.
[12] = chlordiazepoxide 2.5 mg/kg s.c.
[13] = up to the oral dose of 200 mg/kg, rats
[14] = pretreatment 200 mg/kg, 120 mg/kg s.c. pentametazol

SMILES: CNC1=Nc2ccc(Cl)cc2C(c2ccccc2)=[N+]([O-])C1 [chlordiazepoxide]
- Displacement of 3H-Diazepam from its receptor [1]: concentration dependent manner
- IC50 value [1]: in the same range of concentration
- Water consumption (ml) in punished situation ([2]; Table II: chlordiazepoxide 0.1 mg/kg s.c. + RO 15-1788 5 mg/kg i.p.): 4.1 ± 0.59 mL
- Water consumption (ml) in punished situation ([2]; Table II: chlordiazepoxide 0.1 mg/kg s.c. + RO 15-1788 10 mg/kg i.p.): 3.9 ± 0.43 mL
- Water consumption (ml) in punished situation ([2]; Table II: chlordiazepoxide 0.1 mg/kg s.c. + RO 15-1788 20 mg/kg i.p.): 2.8 ± 0.49 mL
- Water consumption (ml) in punished situation ([2]; Table II: chlordiazepoxide 0.1 mg/kg s.c., RO 15-1788 none): 4.1 ± 0.31 mL
- Sedative dose (numerator of ratio) [2]: 10
- Water consumption (ml) punished situation [2, 8]: 3.5 ± 0.47 mL
- Water consumption (ml) without punishment [2, 8]: 5.1 ± 0.56 mL
- Water consumption (ml) punished situation [2, 9]: 4.1 ± 0.31 mL
- Water consumption (ml) without punishment [2, 9]: 5.8 ± 0.42 mL
- Water consumption (ml) punished situation [2, 10]: 3.5 ± 0.62 mL
- Water consumption (ml) without punishment [2, 10]: 6.2 ± 0.37 mL
- Water consumption (ml) punished situation [2, 11]: 3.1 ± 0.54 mL
- Water consumption (ml) without punishment [2, 11]: 7.4 ± 0.77 mL
- Water consumption (ml) punished situation ([2]; chlordiazepoxide 1 mg/kg s.c.): 2.7 ± 0.58 mL
- Water consumption (ml) without punishment ([2]; chlordiazepoxide 1 mg/kg s.c.): 5.4 ± 0.68 mL
- Water consumption (ml) punished situation [2, 12]: 4.1 ± 0.39 mL
- Water consumption (ml) without punishment [2, 12]: 5.2 ± 0.72 mL
- Water consumption (ml) punished situation ([2]; chlordiazepoxide 5 mg/kg s.c.): 2.5 ± 0.31 mL
- Water consumption (ml) without punishment ([2]; chlordiazepoxide 5 mg/kg s.c.): 5.4 ± 0.62 mL
- Water consumption (ml) punished situation ([2]; chlordiazepoxide 10 mg/kg s.c.): 1.6 ± 0.26 mL
- Water consumption (ml) without punishment ([2]; chlordiazepoxide 10 mg/kg s.c.): 1.8 ± 0.30 mL
- Ratio between the sedative and anxiolytic dose ([2]; conflict test): 100
- Anxiolytic effect in presence of RO-15-1788 (selective benzodiazepine receptor antagonist) ([2]; conflict test): antagonized
- Sedative dose range ([2]; subcutaneous, conflict test, unpunished rats): 10 mg/kg

SMILES: CCSc1c(N)cnc2cc(Cl)ccc12.Cl [compound A, 3-amino-4-ethylthio-7-chloro-quinoline-hydrochloride]
- Influence on strychnine induced lethal convulsions ([3]; up to the 200 mg/kg dose level, strychnine 2.5 mg/kg s.c.): not influenced at all
- Protection against strychnine induced convulsions [3, 13]: ineffective
- Displacement of 3H-Diazepam from its receptor [1]: concentration dependent manner
- IC50 value [1]: in the same range of concentration
- Influence on picrotoxin induced lethal convulsions ([4]; pretreated rats, picrotoxin 10 mg/kg s.c.): remained unchanged
- Protection against picrotoxin induced convulsions [4, 13]: ineffective
- Influence on the anticonvulsant effect of diazepam (10 mg/kg) ([5]; compound A 200 mg/kg): no influence
- Severity of the pentametazol convulsions [5, 14]: did not change
- Survival of pretreated animals [5, 14]: none of the pretreated animals survived
- Protection against pentametazol induced convulsions [5, 13]: ineffective
- Water consumption (ml) in punished situation ([2]; Table IV: compound A 5 μg/kg s.c. + RO 15-1788 10 mg/kg i.p.): 3.1 ± 0.69 mL
- Water consumption (ml) in punished situation ([2]; Table IV: compound A 5 μg/kg s.c. + RO 15-1788 20 mg/kg i.p.): 2.4 ± 0.39 mL
- Water consumption (ml) in punished situation ([2]; Table IV: compound A 5 μg/kg s.c., RO 15-1788 none): 4.2 ± 0.37 mL
- Sedative dose (numerator of ratio) [2]: 2.5
- Water consumption (ml) punished situation ([2]; compound A 0.25 mg/kg s.c.): 3.0 ± 0.27 mL
- Water consumption (ml) without punishment ([2]; compound A 0.25 mg/kg s.c.): 7.7 ± 0.45 mL
- Water consumption (ml) punished situation ([2]; compound A 2.5 mg/kg s.c.): 1.9 ± 0.35 mL
- Water consumption (ml) without punishment ([2]; compound A 2.5 mg/kg s.c.): 4.9 ± 0.91 mL
- Water consumption (ml) punished situation ([2]; compound A 2.5 γ/kg s.c.): 2.2 ± 0.32 mL
- Water consumption (ml) without punishment ([2]; compound A 2.5 γ/kg s.c.): 6.3 ± 0.46 mL
- Water consumption (ml) punished situation ([2]; compound A 5 γ/kg s.c.): 3.8 ± 0.19 mL
- Water consumption (ml) without punishment ([2]; compound A 5 γ/kg s.c.): 6.4 ± 0.33 mL
- Water consumption (ml) punished situation ([2]; compound A 25 γ/kg s.c.): 3.7 ± 0.44 mL
- Water consumption (ml) without punishment ([2]; compound A 25 γ/kg s.c.): 7.9 ± 0.58 mL
- Anti-anxiety potency relative to chlordiazepoxide ([2]; conflict test): about 20 times
- Ratio between the sedative and anxiolytic dose ([2]; conflict test): 500
- Anxiolytic effect in presence of RO-15-1788 (selective benzodiazepine receptor antagonist) ([2]; conflict test): antagonized
- LD50 at 48 h [6]: 465 mg/kg
- Animals died ([7]; 200 mg/kg, electroshock-induced lethal convulsions): 70%
- Protection against electroshock-induced convulsions [7, 13]: only slightly effective

SMILES: CN1C(=O)CN=C(c2ccccc2)c2cc(Cl)ccc21 [diazepam]
- Animals died ([3]; 10 mg/kg, strychnine 2.5 mg/kg s.c.): 80%
- Deaths of pretreated animals [5]: none of the pretreated animals died
- Effect on pentametazol convulsions [5]: mitigated the convulsions
- Rats whose life was saved ([7]; electroshock-induced lethal convulsions, dose not given): 80%

SMILES: CCC1(c2ccccc2)C(=O)NC(=O)NC1=O [phenobarbital Na]
- Animals died ([3]; 50 mg/kg, strychnine 2.5 mg/kg s.c.): 40%
- Animals died ([4]; 50 mg/kg, picrotoxin 10 mg/kg s.c.): 80%
- Deaths of pretreated animals [5]: none of the pretreated animals died
- Effect on pentametazol convulsions [5]: mitigated the convulsions
- Protection against electrogenic convulsions ([7]; 30-50 mg/kg): completely protected

— patent publication US4921960A, “Quinoline thioethers” (priority 1987, dated 1990)
